# According to patent US11339185B2, “Cyclic dinucleotides as anticancer agents” (Bristol-Myers Squibb Company, priority 2018, dated 2022):
# Like-named read-outs stand apart in the source and are kept apart here.
# Legend:
# [1] = tested on: THP1-Dual cells, NF-κB pathway; assay: STING THP1 Reporter Assay, NF-κB pathway (SEAP, QUANTI-Blue); assay type: cell-based; conditions: 10% human plasma, SEAP readout (OD620), 100% activation = 100 μM cGAMP, read-out: THP1 Reporter Assays EC50 (μM) NFkB
# Excerpt: (§1) THP1-Dual™ cells were derived from the human THP-1 monocyte cell line by stable integration of two inducible reporter constructs. To this end, THP1-Dual™ cells allow the simultaneous study of the NF-κB pathway, by monitoring the activity of SEAP, and the IRF pathway by assessing the activity of a secreted luciferase (Lucia). Both reporter proteins are readily measurable in the cell culture supernatant when using QUANTI-Blue™, a SEAP detection reagent, and QUANTI-Luc™, a luciferase detection reagent.
# (§2) THP1-Dual™ cells induce the activation of NF-κB in response to STING agonists. They also trigger the IRF pathway upon stimulation with STING agonists, such as cGAMP. Here, the THP-1-Dual cells were used to assess STING binders for function on the cellular level.
# (§3) Serial dilutions of compounds in DMSO were added to low volume 384 well plates at 100 nl/well using an ECHO acoustic dispenser (Labcyte, model 550) to achieve final starting concentration of 100 μM in cell suspension. THP-1 Dual™ STING reporter cells (Invivogen, Dual cells cat #THPD-nfis) were added to the plates with compounds at 15,000 cells in 10 μL per well in RPMI media (Gibco, cat #11875) containing 10% human plasma in a low volume 384-well black wall clear bottom tissue culture plate (Corning, cat #3542) for SEAP assay and low volume solid white plate (Corning, cat #3826) for luciferase assay. One column of the plate was reserved for treatment with cGAMP at 100 μM for 100% activation calculation and one column for no treatment (DMSO only) for baseline activation. Plates were then incubated in 37 OC incubator at 5% CO2 for 20 hours.
# (§4) In the SEAP assay, 5 μl of 2× QuantiBlue (Invivogen, cat #Rep-qb2) is added to 384 well black plates seeded with THP1 cells and incubated at 37° C. for 2 hours. Plates were read on the Envision (Perkin Elmer) at 620 nm wavelength (OD620). In the luciferase assay, 5 μl of Quantiluc (Invivogen, Rep-qlc2) is added to white 384 well plates seeded with THP1 cells and read at 5 minutes on the Envision (Perkin Elmer) using a luminescence protocol (RLU). For both cell lines, 100% activation was determined by value (RLU) of THP-1 Dual STING cells stimulated with 100 μM cGAMP (Invivogen, cat #TLRL-NACGA23-5).
# [2] = biological target: T1, STING WT: His-TVMV-S-hSTING(155-341)-H232R (Homo sapiens, UniProt Q86WV6, H232R); assay: STING HTRF binding assay (time resolved FRET competition), STING WT; conditions: 20 nM His-tagged STING WT cytoplasmic domain, 200 nM fluorescein-labeled cGAMP analog probe, one hour; read-out: HTRF Binding Assays IC50 (μM) WT
# T1 construct: STING WT: His-TVMV-S-hSTING(155-341)-H232R
# T1 sequence (Q86WV6 with tags, fused parts or gaps H232R): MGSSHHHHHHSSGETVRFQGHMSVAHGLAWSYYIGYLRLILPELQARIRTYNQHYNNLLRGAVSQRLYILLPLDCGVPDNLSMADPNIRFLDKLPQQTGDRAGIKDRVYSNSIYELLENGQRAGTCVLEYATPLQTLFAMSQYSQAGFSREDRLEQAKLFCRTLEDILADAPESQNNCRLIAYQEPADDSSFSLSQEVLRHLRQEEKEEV
# Experimental: (§5) A time resolved FRET-based competition binding assay was used to assess test article binding to STING WT and STING AQ. His-tagged STING cytoplasmic domain (WT or AQ) at a concentration of 20 nM was incubated with 2.5 nM Tb-labeled anti-His antibody, test compound, and fluorescein-labeled cGAMP analog probe (BioLog cat. no. C195) at a concentration of 200 nM (STING WT) or 40 nM (STING AQ) in PBS containing 0.005% Tween-20 and 0.1% BSA for one hour. Fluorescence at 495 nm and 520 nm was measured using an EnVision microplate reader to quantify FRET between Tb-labeled anti-His antibody and fluorescein-labeled probe. Background was defined as the signal obtained in the absence of STING protein, and background subtracted FRET ratios were normalized to the maximum signal obtained in the absence of test compound. These values were converted to a percent inhibition. Percent inhibition was determined for test compounds at 11 concentrations. The IC50, defined as the concentration of competing test compound needed to reduce specific binding of the probe by 50%, was calculated using the 4 parameter logistic equation to fit the data
# [3] = tested on: THP1-Dual cells, IRF pathway (IRF3); assay: STING THP1 Reporter Assay, IRF pathway (secreted Lucia luciferase, QUANTI-Luc); assay type: cell-based; conditions: 10% human plasma, luciferase readout, 100% activation = 100 μM cGAMP, read-out: THP1 Reporter Assays EC50 (μM) IRF3
# Excerpt: as §1, §2, §3, §4
# [4] = biological target: T2, STING AQ: His-TVMV-S-hSTING(155-341)-G230A-R293Q (Homo sapiens, UniProt Q86WV6, G230A/H232R/R293Q); assay: STING HTRF binding assay (time resolved FRET competition), STING AQ; conditions: 20 nM His-tagged STING AQ cytoplasmic domain, 40 nM fluorescein-labeled cGAMP analog probe, one hour; read-out: HTRF Binding Assays IC50 (μM) AQ
# T2 construct: STING AQ: His-TVMV-S-hSTING(155-341)-G230A-R293Q
# T2 sequence (Q86WV6 with tags, fused parts or gaps G230A/H232R/R293Q): as the sequence (Q86WV6 with tags, fused parts or gaps H232R) above, with G99A, R162Q counted along it
# Experimental: as §5
compound,measurement,setting,value
"Nc1ncnc2c1ncn2[C@@H]1O[C@@H]2COP(=O)(S)OC[C@@H]3[C@@H](COP(=O)(S)O[C@H]2[C@H]1F)C[C@H]3n1cnc2c(O)n3ccnc3nc21 (single isomer, unassigned) [Example 1-1]",EC50,[1]; 20 hours,54.6 µM
same,IC50,[2],0.19 µM
same,EC50,[3]; 20 hours,41 µM
same,IC50,[4],0.01 µM
"Nc1ncnc2c1ncn2[C@@H]1O[C@@H]2COP(=O)(S)OC[C@@H]3[C@@H](COP(=O)(S)O[C@H]2[C@H]1F)C[C@H]3n1cnc2c(O)n3ccnc3nc21 (single isomer, unassigned) [Example 1-2]",EC50,[1]; 20 hours,54 µM
same,IC50,[2],0.9 µM
same,EC50,[3]; 20 hours,31.3 µM
same,IC50,[4],0.04 µM
"Nc1ncnc2c1ncn2[C@@H]1O[C@@H]2COP(=O)(S)OC[C@@H]3[C@@H](COP(=O)(S)O[C@H]2[C@H]1F)C[C@H]3n1cnc2c(O)n3ccnc3nc21 (single isomer, unassigned) [Example 1-3]",EC50,[1]; 20 hours,> 100 µM
same,IC50,[2],0.84 µM
same,EC50,[3]; 20 hours,> 100 µM
same,IC50,[4],0.02 µM
"Nc1ncnc2c1ncn2[C@@H]1O[C@@H]2COP(=O)(S)OC[C@@H]3[C@@H](COP(=O)(S)O[C@H]2[C@H]1F)C[C@H]3n1cnc2c(O)n3ccnc3nc21 (single isomer, unassigned) [Example 1-4]",EC50,[1]; 20 hours,1.21 µM
same,IC50,[2],0.01 µM
same,EC50,[3]; 20 hours,0.39 µM
same,IC50,[4],0.002 µM
"Nc1ncnc2c1ncn2[C@@H]1C[C@@H]2COP(=O)(S)O[C@@H]3[C@H](O)[C@@H](COP(=O)(S)OC[C@H]21)O[C@H]3n1cnc2c(=O)n3ccnc3[nH]c21 (single isomer, unassigned) [Example 2-1]",EC50,"[1]; Homo sapiens, THP1-Dual, 20 h",7.15 µM
same,IC50,[2],0.06 µM
same,EC50,"[3]; Homo sapiens, THP1-Dual, 20 h",3.07 µM
same,IC50,[4],0.002 µM
"Nc1ncnc2c1ncn2[C@@H]1O[C@@H]2COP(=O)(S)OC[C@@H]3[C@@H](COP(=O)(S)O[C@H]2[C@H]1F)C[C@H]3n1cnc2c1ncn1ccnc21 (single isomer, unassigned) [Example 3-1]",EC50,[1]; 20 hours,> 100 µM
same,IC50,[2],1.38 µM
same,EC50,[3]; 20 hours,93.1 µM
same,IC50,[4],0.09 µM
"Nc1ncnc2c1ncn2[C@@H]1O[C@@H]2COP(=O)(S)OC[C@@H]3[C@@H](COP(=O)(S)O[C@H]2[C@H]1F)C[C@H]3n1cnc2c1ncn1ccnc21 (single isomer, unassigned) [Example 3-2]",EC50,[1]; 20 hours,42.6 µM
same,IC50,[2],1.49 µM
same,EC50,[3]; 20 hours,26.6 µM
same,IC50,[4],0.03 µM
"Nc1ncnc2c1ncn2[C@@H]1C[C@@H]2COP(=O)(O)O[C@@H]3[C@H](O)[C@@H](COP(=O)(S)OC[C@H]21)O[C@H]3n1cnc2c(=O)n3ccnc3[nH]c21 (single isomer, unassigned) [Example 4-1]",EC50,"[1]; Homo sapiens, THP1-Dual, 20 h",> 100 µM
same,IC50,[2],11.1 µM
same,EC50,"[3]; Homo sapiens, THP1-Dual, 20 h",> 100 µM
same,IC50,[4],0.1 µM
"Nc1ncnc2c1ncn2[C@@H]1C[C@@H]2COP(=O)(S)O[C@H]3[C@@H](O)[C@H](n4cnc5c(=O)n6cc[nH]c6nc54)O[C@@H]3COP(=O)(S)OC[C@H]21 (single isomer, unassigned) [Example 5-1]",EC50,"[1]; Homo sapiens, THP1-Dual, 20 h",> 100 µM
same,IC50,[2],> 100 µM
same,EC50,"[3]; Homo sapiens, THP1-Dual, 20 h",> 100 µM
same,IC50,[4],> 100 µM
"Nc1ncnc2c1ncn2[C@@H]1C[C@@H]2COP(=O)(S)O[C@H]3[C@@H](O)[C@H](n4cnc5c(=O)n6cc[nH]c6nc54)O[C@@H]3COP(=O)(S)OC[C@H]21 (single isomer, unassigned) [Example 5-2]",EC50,[1]; 20 hours,> 100 µM
same,IC50,[2],> 100 µM
same,EC50,[3]; 20 hours,> 100 µM
same,IC50,[4],11.8 µM
"NC(=O)c1cc([C@@H]2C[C@@H]3COP(=O)(S)OC[C@@H]4[C@@H](COP(=O)(S)OC[C@H]32)C[C@H]4n2cnc3c(N)ncnc32)ccn1 (single isomer, unassigned) [Example 15-2]",IC50,[2],> 100 µM
same,EC50,[3]; 20 hours,> 100 µM
same,IC50,[4],73.5 µM
"Nc1ncnc2c1ncn2[C@@H]1O[C@@H]2COP(=O)(S)OC[C@@H]3[C@@H](COP(=O)(S)O[C@H]2[C@H]1F)C[C@H]3n1cnc2c(=O)[nH]cnc21 (single isomer, unassigned) [Example 22-2]",EC50,[1]; 20 hours,> 100 µM
same,EC50,[3]; 20 hours,> 100 µM
same,IC50,[4],0.02 µM
